Key:
NAMPT [1] = target: T1, NAMPT (Homo sapiens, UniProt P43490); assay: Time-Resolved Fluorescence Resonance Energy Transfer (TR-FRET) Binding Assay of NAMPT; details: 6.8 nM NAMPT, 200 nM probe, equilibrated 3 hours, no substrates
Summary of the method: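 Compound was mixed with enzyme, probe and antibody and equilibrated 3 h at room temperature. TR-FRET read at Ex 337 nm, Em 520/495 nm. Ratios were normalized to controls and fitted to a four-parameter logistic equation for IC50.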

NAMPT [2] = target: T1, NAMPT; assay: TR-FRET Binding Assay of NAMPT with PRPP; details: 2 nM NAMPT, 2 nM probe, 200 µM PRPP and 2.5 mM ATP, equilibrated 16 hours
Summary of the method: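 TR-FRET probe displacement with 2 nM NAMPT, 2 nM probe and 1 nM Tb-anti-His antibody in the presence of 200 µM PRPP and 2.5 mM ATP, 2% DMSO (all final). Equilibrated 16 hours before reading to permit possible enzymatic modification of compounds.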

PC3 cells = assay: NAMPT Cell Proliferation Assay (Cell Titer Glo); format: cell-based; details: Homo sapiens, PC-3, 120 h, incubated 5 days, cell viability
Summary of the method: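 PC3 cells (500/well, RPMI with 10% heat-inactivated FBS) were exposed to 10-fold compound dilutions from […] for 5 days at 37 °C, 5% CO2. Viability was read with Cell Titer Glo; IC50 from sigmoidal fit of percent inhibition.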

T1 sequence (P43490 whole entry): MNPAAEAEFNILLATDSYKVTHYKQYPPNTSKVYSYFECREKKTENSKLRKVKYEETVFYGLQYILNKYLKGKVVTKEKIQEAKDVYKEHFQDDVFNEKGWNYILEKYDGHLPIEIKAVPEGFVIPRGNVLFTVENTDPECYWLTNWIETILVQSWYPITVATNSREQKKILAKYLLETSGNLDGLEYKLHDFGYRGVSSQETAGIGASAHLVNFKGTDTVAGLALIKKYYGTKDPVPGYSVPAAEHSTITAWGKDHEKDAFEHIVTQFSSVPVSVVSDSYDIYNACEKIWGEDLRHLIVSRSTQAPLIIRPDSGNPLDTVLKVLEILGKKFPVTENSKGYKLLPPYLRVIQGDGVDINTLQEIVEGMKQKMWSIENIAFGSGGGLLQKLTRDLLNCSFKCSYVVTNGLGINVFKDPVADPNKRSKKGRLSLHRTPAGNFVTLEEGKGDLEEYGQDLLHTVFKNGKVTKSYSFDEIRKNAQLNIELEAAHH

Compound | IC50 (NAMPT [1]) [nM] | IC50 (NAMPT [2]) [nM] | IC50 (PC3 cells) [nM]
O=C(Nc1ccc(OC2CN(C(=O)C3CCCC3)C2)cc1)N1CC(c2cccnc2)C1 [Example 142, N-(4-{[1-(cyclopentylcarbonyl)azetidin-3-yl]oxy}phenyl)-3-(pyridin-3-yl)azetidine-1-carboxamide] | 24.6 | 0.339 | 7.91
Cn1cccc1C(=O)N1CCC(c2ccc(NC(=O)N3CC(c4cccnc4)C3)cc2)CC1 [Example 191, N-(4-{1-[(1-methyl-1H-pyrrol-2-yl)carbonyl]piperidin-4-yl}phenyl)-3-(pyridin-3-yl)azetidine-1-carboxamide] | 4.27 | 0.291 | 7.46
O=C(Nc1ccc(C2CCN(C(=O)c3ccsc3)C2)cc1)N1CC(c2cccnc2)C1 (stereo not drawn) [Example 268, 3-(pyridin-3-yl)-N-{4-[1-(thiophen-3-ylcarbonyl)pyrrolidin-3-yl]phenyl}azetidine-1-carboxamide] | 36.5 | 0.225 | 22.8
O=C(Nc1ccc(C2CCN(C(=O)c3ccccc3)C2)cc1)N1CC(c2cccnc2)C1 (stereo not drawn) [Example 71, N-[4-(1-benzoylpyrrolidin-3-yl)phenyl]-3-(pyridin-3-yl)azetidine-1-carboxamide] | 20.1 | 0.184 | 10.7
CC1CC1C(=O)N1CC(Oc2ccc(NC(=O)N3CC(c4cccnc4)C3)cc2)C1 (stereo not drawn) [Example 125, N-[4-({1-[(2-methylcyclopropyl)carbonyl]azetidin-3-yl}oxy)phenyl]-3-(pyridin-3-yl)azetidine-1-carboxamide] | 29.3 | 0.271 | 8.12
O=C(Nc1ccc(C2CCN(C(=O)c3nccs3)C2)cc1)N1CC(c2cccnc2)C1 (stereo not drawn) [Example 267, 3-(pyridin-3-yl)-N-{4-[1-(1,3-thiazol-2-ylcarbonyl)pyrrolidin-3-yl]phenyl}azetidine-1-carboxamide] | 22.5 | 0.297 | 17.8
CC(C)CCN1CC(c2ccc(NC(=O)N3CC(c4cccnc4)C3)cc2)C1 [Example 252, N-{4-[1-(3-methylbutyl)azetidin-3-yl]phenyl}-3-(pyridin-3-yl)azetidine-1-carboxamide] | 526 | 0.296 | 401
CCC(C)CN1CCC(c2ccc(NC(=O)N3CC(c4cccnc4)C3)cc2)CC1 (stereo not drawn) [Example 239, N-{4-[1-(2-methylbutyl)piperidin-4-yl]phenyl}-3-(pyridin-3-yl)azetidine-1-carboxamide] | 1680 | 0.2 | 1510
O=C(Nc1ccc(C2=CCN(C(=O)C3CC3)CC2)cc1)N1CC(c2cccnc2)C1 [Example 25, N-{4-[1-(cyclopropylcarbonyl)-1,2,3,6-tetrahydropyridin-4-yl]phenyl}-3-(pyridin-3-yl)azetidine-1-carboxamide] | 37.4 | 0.362 | 27.1
O=C(Nc1ccc(C2CCN(CC3CCOC3)CC2)cc1)N1CC(c2cccnc2)C1 (stereo not drawn) [Example 243, 3-(pyridin-3-yl)-N-{4-[1-(tetrahydrofuran-3-ylmethyl)piperidin-4-yl]phenyl}azetidine-1-carboxamide] | 1270 | 0.326 | 1310
CC1(C(=O)N2CCC(c3ccc(NC(=O)N4CC(c5cccnc5)C4)cc3)CC2)CC1 [Example 193, N-(4-{1-[(1-methylcyclopropyl)carbonyl]piperidin-4-yl}phenyl)-3-(pyridin-3-yl)azetidine-1-carboxamide] | 14.4 | 0.243 | 13.7
CC1(C(=O)N2CCC(c3ccc(NC(=O)N4CC(c5cccnc5)C4)cc3)C2)CCCCC1 (stereo not drawn) [Example 276, N-(4-{1-[(1-methylcyclohexyl)carbonyl]pyrrolidin-3-yl}phenyl)-3-(pyridin-3-yl)azetidine-1-carboxamide] | 12.4 | 0.347 | 10
CC(C)(C)CC(=O)N1CC=C(c2ccc(NC(=O)N3CC(c4cccnc4)C3)cc2)CC1 [Example 17, N-{4-[1-(3,3-dimethylbutanoyl)-1,2,3,6-tetrahydropyridin-4-yl]phenyl}-3-(pyridin-3-yl)azetidine-1-carboxamide] | 16.9 | 0.568 | 36.8
O=C(Nc1ccc(O[C@@H]2CCN(C(=O)c3ccoc3)C2)cc1)N1CC(c2cccnc2)C1 [Example 303, N-(4-{[(3R)-1-(furan-3-ylcarbonyl)pyrrolidin-3-yl]oxy}phenyl)-3-(pyridin-3-yl)azetidine-1-carboxamide] | 40.5 | 0.595 | 13.5

More lines, now with the values ahead:

IC50 (NAMPT [1]) [nM] | IC50 (NAMPT [2]) [nM] | IC50 (PC3 cells) [nM] | Compound
50.7 | 0.264 | 62.4 | CC(=O)N1CCC(C(=O)N2CCC(Oc3ccc(NC(=O)N4CC(c5cccnc5)C4)cc3)CC2)CC1 [Example 34, N-[4-({1-[(1-acetylpiperidin-4-yl)carbonyl]piperidin-4-yl}oxy)phenyl]-3-(pyridin-3-yl)azetidine-1-carboxamide]
34.3 | 0.201 | 83.6 | CN1CCN(CCC(=O)N2CCC(Oc3ccc(NC(=O)N4CC(c5cccnc5)C4)cc3)CC2)CC1 [Example 38, N-[4-({1-[3-(4-methylpiperazin-1-yl)propanoyl]piperidin-4-yl}oxy)phenyl]-3-(pyridin-3-yl)azetidine-1-carboxamide]
125 | 0.419 | 156 | CC(=O)N[C@@H](CC(C)C)C(=O)N1CC[C@@H](Oc2ccc(NC(=O)N3CC(c4cccnc4)C3)cc2)C1 [Example 318, N-(4-{[(3R)-1-(N-acetyl-L-leucyl)pyrrolidin-3-yl]oxy}phenyl)-3-(pyridin-3-yl)azetidine-1-carboxamide]
8.41 | 0.319 | 23.5 | CCC(C)CC(=O)N1CCC(c2ccc(NC(=O)N3CC(c4cccnc4)C3)cc2)CC1 (stereo not drawn) [Example 167, N-{4-[1-(3-methylpentanoyl)piperidin-4-yl]phenyl}-3-(pyridin-3-yl)azetidine-1-carboxamide]
125 | 0.37 | 34.9 | O=C(CC1CCOCC1)N1CCC(Oc2ccc(NC(=O)N3CC(c4cccnc4)C3)cc2)CC1 [Example 2, 3-(pyridin-3-yl)-N-(4-{[1-(tetrahydro-2H-pyran-4-ylacetyl)piperidin-4-yl]oxy}phenyl)azetidine-1-carboxamide]
21.9 | 0.364 | 12.3 | CCC(C)(C)C(=O)N1CC[C@@H](Oc2ccc(NC(=O)N3CC(c4cccnc4)C3)cc2)C1 [Example 330, N-(4-{[(3R)-1-(2,2-dimethylbutanoyl)pyrrolidin-3-yl]oxy}phenyl)-3-(pyridin-3-yl)azetidine-1-carboxamide]
311 | 0.29 | 211 | CN1CCN(CC(=O)N2CC[C@@H](Oc3ccc(NC(=O)N4CC(c5cccnc5)C4)cc3)C2)CC1 [Example 312, N-[4-({(3R)-1-[(4-methylpiperazin-1-yl)acetyl]pyrrolidin-3-yl}oxy)phenyl]-3-(pyridin-3-yl)azetidine-1-carboxamide]
117 | 0.325 | 48.9 | O=C(Nc1ccc(O[C@@H]2CCN(C(=O)C3CC3)C2)cc1)N1CC(c2cccnc2)C1 [Example 85, N-(4-{[(3R)-1-(cyclopropylcarbonyl)pyrrolidin-3-yl]oxy}phenyl)-3-(pyridin-3-yl)azetidine-1-carboxamide]
85.4 | 0.174 | 72.9 | O=C(CCN1CCOCC1)N1CCC(Oc2ccc(NC(=O)N3CC(c4cccnc4)C3)cc2)CC1 [Example 37, N-[4-({1-[3-(morpholin-4-yl)propanoyl]piperidin-4-yl}oxy)phenyl]-3-(pyridin-3-yl)azetidine-1-carboxamide]
43.8 | 0.27 | 100 | CC(C)CCC(=O)N1CCC(Oc2ccc(NC(=O)N3CC(c4cccnc4)C3)cc2)CC1 [Example 42, N-(4-{[1-(4-methylpentanoyl)piperidin-4-yl]oxy}phenyl)-3-(pyridin-3-yl)azetidine-1-carboxamide]
27.4 | 0.244 | 5.48 | CC[C@H](C)C(=O)N1CC[C@@H](Oc2ccc(NC(=O)N3CC(c4cccnc4)C3)cc2)C1 [Example 86, N-[4-({(3R)-1-[(2S)-2-methylbutanoyl]pyrrolidin-3-yl}oxy)phenyl]-3-(pyridin-3-yl)azetidine-1-carboxamide]
7.72 | 0.491 | 8.18 | CCC(C)(C)C(=O)N1CC(Oc2ccc(NC(=O)N3CC(c4cccnc4)C3)cc2)C1 [Example 131, N-(4-{[1-(2,2-dimethylbutanoyl)azetidin-3-yl]oxy}phenyl)-3-(pyridin-3-yl)azetidine-1-carboxamide]
53.4 | 0.224 | 30.6 | O=C(CC(F)(F)F)N1CCC(Oc2ccc(NC(=O)N3CC(c4cccnc4)C3)cc2)CC1 [Example 6, 3-(pyridin-3-yl)-N-(4-{[1-(3,3,3-trifluoropropanoyl)piperidin-4-yl]oxy}phenyl)azetidine-1-carboxamide]
435 | 0.211 | 1820 | O=C1CC[C@H](C(=O)N2CC[C@@H](Oc3ccc(NC(=O)N4CC(c5cccnc5)C4)cc3)C2)N1 [Example 305, N-(4-{[(3R)-1-(5-oxo-D-prolyl)pyrrolidin-3-yl]oxy}phenyl)-3-(pyridin-3-yl)azetidine-1-carboxamide]

Source: patent US9296723B2, “NAMPT inhibitors” (AbbVie Inc., priority 2012, dated 2016)
